Entries after “also recorded” stand apart in the source; their conditions may differ. Where no end group is shown, it is not given here.
Test system: human umbilical vein endothelial cells
Assay: Endothelial cell binding assay: binding of [125I]-tPA to endothelial cells
Conditions: for inhibition of binding of tPA to endothelial cells (FIG. 3): 15 μg/ml peptide, about 20 ng/ml [125I]-tPA, 4° C., 90 minutes; for dose response of inhibition of binding of tPA to endothelial cells (FIG. 4): several peptide concentrations
Procedure: Peptides from FIG. 1 were examined for their ability to inhibit the binding of [^125 I]-tPA to human umbilical vein endothelial cells. Assays were performed as described under Materials and Methods, below, using a final peptide concentration of 15 μg/ml. All samples were assayed in duplicate. Bar height represents the result obtained for one duplicate point and the corresponding error bar represents the result obtained for the other. Results are shown in percent inhibition of binding.
Assays examining the binding of [^125 I]-tPA to endothelial cells were performed by a conventional method essentially as described by Hajjar et al., J. Clin. Invest. 80, 1712-1719 (1987), and Beebe, Thromb. Res. 46, 241-254 (1987). Briefly, cells were grown to confluence in 24-well dishes using MCDB107 growth medium supplemented with 180 μg/ml heparin, 30 μg/ml ECGS, 100 μg/ml gentamicin and 10% fetal bovine serum. Immediately prior to assay, plates were chilled to 4° C. and all wells were aspirated. Cells were washed 3 times with binding buffer (PBS, pH 7.2, 5.0 mg/ml BSA, 10 mM glucose, 0.01% Tween 80). Five hundred μl of buffer containing approximately 20 ng/ml of [^125 I]-tPA and a test sample of peptide was then added. Incubations proceeded at 4° C. for 90 minutes. At the end of the incubation time, cells were washed rapidly 4 times with 500 μl aliquots of binding buffer. Cells were separated from the plates using 3% sodium dodecylsulfate (SDS) and the amount of radioactivity present was determined. Nonspecific binding was determined by carrying out incubations in the presence of an excess (2.0 μg/ml) of unlabeled tPA.
The peptides shown in Table 1 were examined for their effect on the binding of tPA to cultured human umbilical vein endothelial cells. […] All points were run in duplicate and nonspecific binding was subtracted in each case.

Substance | inhibition of binding of tPA to endothelial cells (FIG. 3) | dose response of inhibition of binding of tPA to endothelial cells (FIG. 4)
LGKHNYCRNPDGDAKPWCHVLKNRR-amide (LGKHNYCRNPDGDAKPWCHVLKNRR-NH2; cysteine pairing not given here) [Peptide 166, 25 amino acid synthetic peptide amide fragment of native human tPA] | effective at inhibiting the binding of tPA to cells | –
NPDRDSKPWCYVFKAGKYSSEFCST-amide (NPDRDSKPWCYVFKAGKYSSEFCST-NH2; cysteine pairing not given here) [Peptide 158, 25 amino acid synthetic peptide amide fragment of native human tPA] | inhibited the binding of tPA to endothelial cells; also recorded: more effective at inhibiting endothelial cell binding relative to the other active peptides | concentration dependent manner
VPVKSCSEPRCFNGGTCQQALYFSD-amide (VPVKSCSEPRCFNGGTCQQALYFSD-NH2; cysteine pairing not given here) [Peptide 148, 25 amino acid synthetic peptide amide fragment of native human tPA] | inhibited the binding of tPA to endothelial cells | concentration dependent manner

Source: US5039791A, “Peptide fragments of tissue plasminogen activator” (Monsanto Company, priority 1989, dated 1991)
